In ChEMBL document CHEMBL2311314 (J Med Chem, 2013):
Converted amounts (≈) assume the structure as drawn. The source made the active and inactive calls. No cut-off for these calls is given here.

Columns and labels:
[1] = target: Replicase polyprotein 1a (Severe acute respiratory syndrome-related coronavirus) (UniProt P0C6U8); assay: Inhibition of SARS-CoV 3CLpro expressed in Escherichia coli BL21 (DE3) at 100 uM by FRET assay in presence of 0.01% Triton X-100
Replicase polyprotein 1a [2] = target: T1, Replicase polyprotein 1a (Severe acute respiratory syndrome-related coronavirus, UniProt P0C6U8); assay: (§1) Inhibition of SARS-CoV 3CLpro expressed in Escherichia coli BL21 (DE3) by FRET assay
[3] = Inhibition of SARS-CoV PL-pro after 10 mins by luminescence assay; design: species or system Severe acute respiratory syndrome-related coronavirus
[4] = Ratio of EC50 for SARS-CoV infected in african green monkey Vero E6 cells to Ki for SARS-CoV 3CLpro; design: species or system Severe acute respiratory syndrome-related coronavirus
[5] = target: Replicase polyprotein 1a (Severe acute respiratory syndrome-related coronavirus) (UniProt P0C6U8); assay: as §1
Murine coronavirus [6] = assay: Inhibition of mouse coronavirus 3CLpro expressed in Escherichia coli BL21 (DE3) at 100 uM by FRET assay in absence of 0.01% Triton X-100
Human coronavirus HKU1 [7] = assay: Inhibition of human coronavirus HKU1 3CLpro expressed in Escherichia coli BL21 (DE3) at 100 uM by FRET assay in absence of 0.01% Triton X-100
[8] = target: Replicase polyprotein 1a (Severe acute respiratory syndrome-related coronavirus) (UniProt P0C6U8); assay: Inhibition of SARS-CoV 3CLpro expressed in Escherichia coli BL21 (DE3) at 100 uM by FRET assay in absence of 0.01% Triton X-100
Replicase polyprotein 1a [9] = target: T1, Replicase polyprotein 1a; assay: Inhibition of SARS-CoV 3CLpro expressed in Escherichia coli BL21 (DE3) after 2 hrs by FRET assay
Murine coronavirus [10] = assay: Inhibition of mouse coronavirus 3CLpro expressed in Escherichia coli BL21 (DE3) at 100 uM by FRET assay in presence of 0.01% Triton X-100
Human coronavirus HKU1 [11] = assay: Inhibition of human coronavirus HKU1 3CLpro expressed in Escherichia coli BL21 (DE3) at 100 uM by FRET assay in presence of 0.01% Triton X-100
[12] = Cytotoxicity against african green monkey Vero E6 cells assessed as cell death at […] after 48 hrs by CellTiter-Glo luminescent cell viability assay; format: cell-based; conditions: chlorocebus sabaeus
[13] = Cytotoxicity against african green monkey Vero E6 cells after 48 hrs by CellTiter-Glo luminescent cell viability assay; format: cell-based; conditions: chlorocebus sabaeus
[14] = Aqueous solubility of the compound in PBS buffer at pH 7.4 after 4 hrs by HPLC with UV detection analysis; format: physicochemical

| Compound | inhibition [1] | further results |
| --- | --- | --- |
| COc1ccccc1C(=O)N(c1ccc(C(C)(C)C)cc1)C(C(=O)NC(C)(C)C)c1cccnc1 (stereo not drawn) | > 49% | – |
| CC(C)(C)NC(=O)C(c1c[nH]nn1)N(C(=O)c1ccco1)c1ccc(C(C)(C)C)cc1 (stereo not drawn) | 23% | – |
| CC(C)(C)NC(=O)C(c1c[nH]cn1)N(C(=O)c1ccco1)c1ccc(C(C)(C)C)cc1 (stereo not drawn) | 23% | – |
| CC(C)(C)NC(=O)C(c1cccnc1)N(C(=O)c1ccccc1O)c1ccc(C(C)(C)C)cc1 (stereo not drawn) | > 49% | – |
| CC(C)(C)NC(=O)C(c1cccnc1)N(C(=O)c1ccc(F)cc1)c1ccc(C(C)(C)C)cc1 (stereo not drawn) | > 49% | – |
| CC(C)(C)NC(=O)C(c1cccnc1)N(C(=O)Cc1cnc[nH]1)c1ccc(C(C)(C)C)cc1 (stereo not drawn) | > 49% | – |
| CC(C)CC(=O)N(c1ccc(C(C)(C)C)cc1)C(C(=O)NC(C)(C)C)c1cccnc1 (stereo not drawn) | > 49% | – |
| Cn1cnc(C(=O)N(c2ccc(C(C)(C)C)cc2)C(C(=O)NC(C)(C)C)c2cccnc2)c1 (stereo not drawn) | > 49% | IC50 (Replicase polyprotein 1a [2]): 75 µM |
| CCC(C)c1ccc(N(C(=O)c2ccco2)C(C(=O)NC2CCCC2)c2cccnc2)cc1 (stereo not drawn) | – | IC50 (Replicase polyprotein 1a [2]): 2.2 µM; IC50 [3]: 34 µM |
| CC(C)(C)NC(=O)C(c1cccnc1)N(C(=O)CO)c1ccc(C(C)(C)C)cc1 (stereo not drawn) | > 49% | – |
| CC[C@H](NC(=O)[C@@H](NC(=O)OCc1ccccc1)[C@@H](C)OC(C)(C)C)C(=O)N[C@H](C=O)C[C@@H]1CCNC1=O | – | Ratio [4]: 11.5 |
| CC(C)(C)NC(=O)C(c1cccnc1)N(C(=O)c1ccc[nH]1)c1ccc(C(C)(C)C)cc1 (stereo not drawn) | > 49% | – |
| CC(C)(C)NC(=O)C(c1cccnc1)N(C(=O)c1cccs1)c1ccc(C(C)(C)C)cc1 (stereo not drawn) | > 49% | IC50 (Replicase polyprotein 1a [2]): 50 µM |
| CC(C)(C)NC(=O)C(c1cccnc1)N(C(=O)C1CCCO1)c1ccc(C(C)(C)C)cc1 (stereo not drawn) | > 49% | – |
| CC(C)c1ccc(N(C(=O)c2ccco2)C(C(=O)NC(C)(C)C)c2cccnc2)cc1 (stereo not drawn) | – | IC50 (Replicase polyprotein 1a [2]): 28.1 µM |
| Cc1ccc(C(=O)N(c2ccc(C(C)(C)C)cc2)C(C(=O)NC(C)(C)C)c2cccnc2)o1 (stereo not drawn) | 55% | – |
| CC(C)(C)NC(=O)C(c1ccsc1)N(C(=O)c1ccco1)c1ccc(C(C)(C)C)cc1 (stereo not drawn) | 11% | inhibition [5]: inactive |
| CC(C)(C)NC(=O)C(c1cccnc1)N(C(=O)c1ccco1)c1ccc(F)cc1 (stereo not drawn) | – | inhibition [5]: inactive |
| CC(C)(C)NC(=O)C(c1cccnc1)N(C(=O)Cc1ccccc1)c1ccc(C(C)(C)C)cc1 (stereo not drawn) | > 49% | – |
| CC(C)(C)NC(=O)C(c1cccnc1)N(C(=O)c1ncc[nH]1)c1ccc(C(C)(C)C)cc1 (stereo not drawn) | 49% | – |
| CC(C)(C)NC(=O)C(c1cccnc1)N(C(=O)c1ccco1)C1CC1 (stereo not drawn) | – | inhibition [5]: inactive |
| CN(C)CCCSc1ccccc1NC(=O)/C=C/c1ccccc1 [CINANSERIN] | inactive | inhibition (Murine coronavirus [6]): inactive; inhibition (Human coronavirus HKU1 [7]): inactive; inhibition [8]: inactive; IC50 (Replicase polyprotein 1a [9]): 5 µM; inhibition (Murine coronavirus [10]): inactive; inhibition (Human coronavirus HKU1 [11]): inactive; Activity [12]: > 90%; CC50 at 48 h [13]: 31 µM; CC90 at 48 h [13]: 66 µM |
| CCN(CC)c1ccc(C(=O)On2nnc3ccccc32)cc1 | – | IC50 (Replicase polyprotein 1a [2]): 11.1 µM |
| CC(C)(C)NC(=O)C(c1cccnc1)N(C(=O)c1ccccn1)c1ccc(C(C)(C)C)cc1 (stereo not drawn) | > 49% | – |
| Cc1ccc(C(C(=O)NC(C)(C)C)N(C(=O)c2ccco2)c2ccc(C(C)(C)C)cc2)cn1 (stereo not drawn) | < 15% | – |
| CC(C)(C)NC(=O)C(c1cccnc1)N(C(=O)c1cc[nH]n1)c1ccc(C(C)(C)C)cc1 (stereo not drawn) | 56% | – |

| Compound | inhibition [1] | further results |
| --- | --- | --- |
| Cc1ccoc1C(=O)N(c1ccc(C(C)(C)C)cc1)C(C(=O)NC(C)(C)C)c1cccnc1 (stereo not drawn) | 53% | – |
| CC(C)(C)NC(=O)C(c1cc[nH]n1)N(C(=O)c1ccco1)c1ccc(C(C)(C)C)cc1 (stereo not drawn) | < 15% | – |
| CC(C)(C)NC(=O)C(c1cccnc1)N(C(=O)c1ncccn1)c1ccc(C(C)(C)C)cc1 (stereo not drawn) | > 49% | – |
| C=C(Cc1cccc(C)c1)C1=CC=C(c2ccc(C)cc2)C1 | – | IC50 (Replicase polyprotein 1a [2]): 13 µM |
| CC(C)(C)NC(=O)C(c1cccnc1)N(C(=O)c1ncco1)c1ccc(C(C)(C)C)cc1 (stereo not drawn) | > 49% | IC50 (Replicase polyprotein 1a [2]): 47 µM |
| CC(C)(C)NC(=O)C(c1cccnc1)N(C(=O)C1=NC=NC1)c1ccc(C(C)(C)C)cc1 (stereo not drawn) | > 49% | IC50 (Replicase polyprotein 1a [2]): 6 µM |
| CC(C)(C)NC(=O)C(c1ccncc1)N(C(=O)c1ccco1)c1ccc(C(C)(C)C)cc1 (stereo not drawn) | – | IC50 (Replicase polyprotein 1a [2]): 45 µM |
| CC(C)(C)NC(=O)C(c1cccnc1)N(C(=O)CC(F)(F)F)c1ccc(C(C)(C)C)cc1 (stereo not drawn) | 57% | – |
| CC(C)(C)NC(=O)C(c1ccnnc1)N(C(=O)c1ccco1)c1ccc(C(C)(C)C)cc1 (stereo not drawn) | – | IC50 (Replicase polyprotein 1a [2]): 10 µM |
| O=C(Oc1cncc(Br)c1)c1cccs1 | – | IC50 (Replicase polyprotein 1a [2]): 0.5 µM |
| CC(C)(C)NC(=O)C(c1cccnc1)N(C(=O)c1cnco1)c1ccc(C(C)(C)C)cc1 (stereo not drawn) | > 49% | IC50 (Replicase polyprotein 1a [2]): 39 µM |
| CC(C)(C)NC(=O)C(c1ccccn1)N(C(=O)c1ccco1)c1ccc(C(C)(C)C)cc1 (stereo not drawn) | < 15% | – |
| CC(C)(C)NC(=O)C(c1cn[nH]c1)N(C(=O)c1ccco1)c1ccc(C(C)(C)C)cc1 (stereo not drawn) | 16% | – |
| CC(C)(C)NC(=O)C(c1cnccn1)N(C(=O)c1ccco1)c1ccc(C(C)(C)C)cc1 (stereo not drawn) | – | IC50 (Replicase polyprotein 1a [2]): 5.5 µM |
| CC(C)(C)NC(=O)C(c1cccnc1)N(C(=O)c1ccncc1)c1ccc(C(C)(C)C)cc1 (stereo not drawn) | > 49% | – |
| CC(C)(C)NC(=O)C(c1cccnc1)N(C(=O)c1ccc(Cl)cc1)c1ccc(C(C)(C)C)cc1 (stereo not drawn) | > 49% | – |
| CC(C)(C)NC(=O)C(c1cccnc1)N(C(=O)c1cn[nH]c1)c1ccc(C(C)(C)C)cc1 (stereo not drawn) | > 49% | – |
| CC(C)(C)NC(=O)C(c1cccnc1)N(C(=O)c1cccc(O)c1)c1ccc(C(C)(C)C)cc1 (stereo not drawn) | > 49% | – |
| CC(C)(C)NC(=O)C(c1cccnc1)N(C(=O)c1cccnc1)c1ccc(C(C)(C)C)cc1 (stereo not drawn) | > 49% | – |
| CC(C)(C)NC(=O)C(c1cccnc1)N(C(=O)c1ccc(O)cc1)c1ccc(C(C)(C)C)cc1 (stereo not drawn) | > 49% | – |
| CC(C)(C)NC(=O)C(c1cccnc1)N(C(=O)c1ccc(Cl)o1)c1ccc(C(C)(C)C)cc1 (stereo not drawn) | > 49% | IC50 (Replicase polyprotein 1a [2]): 5.2 µM |
| COc1ccc(C(=O)N(c2ccc(C(C)(C)C)cc2)C(C(=O)NC(C)(C)C)c2cccnc2)cc1 (stereo not drawn) | > 49% | – |
| COCC(=O)N(c1ccc(C(C)(C)C)cc1)C(C(=O)NC(C)(C)C)c1cccnc1 (stereo not drawn) | > 49% | – |
| CC(C)(C)NC(=O)[C@@H](c1cccnc1)N(C(=O)c1ccco1)c1ccc(C(C)(C)C)cc1 | – | solubility at 4 h [14]: 219 µM (≈ 94.9 µg/mL) |
| COc1cccc(C(=O)N(c2ccc(C(C)(C)C)cc2)C(C(=O)NC(C)(C)C)c2cccnc2)c1 (stereo not drawn) | > 49% | – |
